Experimental data as given in US6455540B1, “Methods of use of quinolone compounds against anaerobic pathogenic bacteria” (priority 1999, dated 2002).
Converted amounts (≈) assume the structure as drawn.

How the values were obtained:
Assay in all cases: Agar dilution MIC
[1] = system: Actinomyces odontolyticus; type: cell-based; conditions: Schaalia odontolytica, 10 isolates
[2] = system: Actinomyces israelii; type: cell-based; conditions: 6 isolates
[3] = system: Anaerobiospirillum thomasii; type: cell-based; conditions: 13 isolates
[4] = system: Anaerobiospirillum succiniciproducens; type: cell-based; conditions: 3 isolates
[5] = system: Bacteroides gracilis; type: cell-based, Bacteroides gracilis (Campylobacter gracilis); conditions: Campylobacter gracilis, 11 isolates
[6] = system: Bacteroides tectum; type: cell-based; conditions: 22 isolates
[7] = system: Bacteroides ureolyticus; type: cell-based; conditions: Campylobacter ureolyticus, 17 isolates
[8] = system: Bilophila wadsworthia; type: cell-based; conditions: 16 isolates, agar supplemented with pyruvate
[9] = system: Clostridium clostridioforme; type: cell-based; conditions: Clostridium, 11 isolates
[10] = system: Clostridium dfficile; type: cell-based, Clostridium difficile; conditions: Clostridium
[11] = system: Clostridium inocuum; type: cell-based, Clostridium innocuum; conditions: Clostridium, 11 isolates
[12] = system: Clostridium ramosum; type: cell-based; conditions: Thomasclavelia ramosa, 10 isolates
[13] = system: Fusobacterium spp group 1; type: cell-based; conditions: Fusobacterium, 19 isolates
[14] = system: Fusobacterium spp. group 2; type: cell-based, Fusobacterium mortiferum, necrogenes, ulcerans; conditions: Fusobacterium, 12 isolates
[15] = system: Fusobacterium russii; type: cell-based; conditions: Fusobacterium russii
[16] = system: Fusobacterium varium; type: cell-based; conditions: Fusobacterium varium, 17 isolates
[17] = system: Peptostreptococcus asaccharolyticus; type: cell-based; conditions: Peptoniphilus asaccharolyticus, 11 isolates
[18] = system: Peptostreptococcus magnus; type: cell-based; conditions: Finegoldia magna, 13 isolates
[19] = system: Peptostreptococcus micros; type: cell-based; conditions: 12 isolates
[20] = system: Peptostreptococcus prevotii; type: cell-based; conditions: Anaerococcus prevotii, read-out: Minimal Inhibitory Concentration 50% (MIC50); 9 isolates
[21] = system: Porphyromonas asaccharolyticus; type: cell-based, Porphyromonas asaccharolytica; conditions: 11 isolates
[22] = system: Porphyromonas canoris; type: cell-based; conditions: 10 isolates
[23] = system: Porphyromonas gingivalis; type: cell-based; conditions: 13 isolates
[24] = system: Porphyromonas macaccae; type: cell-based; conditions: 13 isolates
[25] = system: Porphyromonas spp.; type: cell-based, Porphyromonas cangingivalis, cansulci, circumdentaria, levii; conditions: Porphyromonas, 11 isolates
[26] = system: Prevotella bivia; type: cell-based; conditions: Prevotella bivia, 21 isolates
[27] = system: Prevotella buccae-oris group; type: cell-based; conditions: 22 isolates
[28] = system: Prevotella heparinolytica; type: cell-based; conditions: 16 isolates
[29] = system: Prevotella intermedia; type: cell-based; conditions: 11 isolates
[30] = system: Prevotella melaninogenica; type: cell-based; conditions: 12 isolates
[31] = system: Prevotella denticola/loeschii group; type: cell-based; conditions: Prevotella denticola, read-out: Minimal Inhibitory Concentration 50% (MIC50); 6 isolates
[32] = system: Veillonella spp.; type: cell-based; conditions: Veillonella, 24 isolates
[33] = read-out: Minimal Inhibitory Concentration 90% (MIC90)
[34] = read-out: Minimal Inhibitory Concentration 50% (MIC50)
[35] = Porphyromonas, read-out: Minimal Inhibitory Concentration 50% (MIC50)
[36] = Porphyromonas, read-out: Minimal Inhibitory Concentration 90% (MIC90)

## CC[C@H]1OC(=O)[C@H](C)[C@@H](O[C@H]2C[C@@](C)(OC)[C@@H](O)[C@H](C)O2)[C@H](C)[C@@H](O[C@@H]2O[C@H](C)C[C@H](N(C)C)[C@H]2O)[C@](C)(O)C[C@@H](C)C(=O)[C@H](C)[C@@H](O)[C@]1(C)O [Erythromycin]
[1]; [33]
  MIC90: 0.03 µg/mL (≈ 0.0409 µM)
[1]; [34]
  MIC50: ≤ 0.015 µg/mL
[2]
  Minimal Inhibitory Concentration Range: 0.03 µg/mL
[2]; Actinomyces israelii, read-out: Minimal Inhibitory Concentration 50% (MIC50)
  MIC50: 0.03 µg/mL (≈ 0.0409 µM)
[3]
  Minimal Inhibitory Concentration Range: 1 to 16 µg/mL
[3]; Anaerobiospirillum thomasii, read-out: Minimal Inhibitory Concentration 50% (MIC50)
  MIC50: 4 µg/mL (≈ 5.45 µM)
[3]; Anaerobiospirillum thomasii, read-out: Minimal Inhibitory Concentration 90% (MIC90)
  MIC90: 8 µg/mL (≈ 10.9 µM)
[4]
  Minimal Inhibitory Concentration Range: 8 to 16 µg/mL
[4]; Anaerobiospirillum succiniciproducens, read-out: Minimal Inhibitory Concentration 50% (MIC50)
  MIC50: 16 µg/mL (≈ 21.8 µM)
[5]; [33]
  MIC90: 2 µg/mL (≈ 2.73 µM)
[5]; [34]
  MIC50: 1 µg/mL (≈ 1.36 µM)
[6]
  Minimal Inhibitory Concentration Range: 0.25 to 1 µg/mL
[6]; Bacteroides pyogenes, read-out: Minimal Inhibitory Concentration 90% (MIC90)
  MIC90: 0.5 µg/mL (≈ 0.681 µM)
[6]; Bacteroides pyogenes, read-out: Minimal Inhibitory Concentration 50% (MIC50)
  MIC50: 0.5 µg/mL (≈ 0.681 µM)
[7]; [33]
  MIC90: 2 µg/mL (≈ 2.73 µM)
[7]; [34]
  MIC50: 0.025 µg/mL (≈ 0.0341 µM)
[8]
  Minimal Inhibitory Concentration Range: 4 to 32 µg/mL
[8]; Bilophila wadsworthia, read-out: Minimal Inhibitory Concentration 90% (MIC90)
  MIC90: 32 µg/mL (≈ 43.6 µM)
[8]; Bilophila wadsworthia, read-out: Minimal Inhibitory Concentration 50% (MIC50)
  MIC50: 16 µg/mL (≈ 21.8 µM)
[9]; [33]
  MIC90: > 32 µg/mL
[9]; [34]
  MIC50: 16 µg/mL (≈ 21.8 µM)
[10]; [34]
  MIC50: 0.5 µg/mL (≈ 0.681 µM)
[10]; read-out: Minimal Inhibitory Concentration 90% (MIC90), 14 isolates
  MIC90: > 32 µg/mL
[11]; [33]
  MIC90: > 32 µg/mL
[11]; [34]
  MIC50: > 32 µg/mL
[12]; [34]
  MIC50: 1 µg/mL (≈ 1.36 µM)
[12]; [33]
  MIC90: > 32 µg/mL
[13]; GROUP1, read-out: Minimal Inhibitory Concentration 50% (MIC50)
  MIC50: 8 µg/mL (≈ 10.9 µM)
[13]; GROUP1, read-out: Minimal Inhibitory Concentration 90% (MIC90)
  MIC90: 32 µg/mL (≈ 43.6 µM)
[14]; [34]
  MIC50: > 32 µg/mL
[14]; [33]
  MIC90: > 32 µg/mL
[15]; [34]
  MIC50: 4 µg/mL (≈ 5.45 µM)
[15]; [33]
  MIC90: > 32 µg/mL
[16]; [34]
  MIC50: > 32 µg/mL
[16]; [33]
  MIC90: > 32 µg/mL
[17]; [34]
  MIC50: 4 µg/mL (≈ 5.45 µM)
[17]; [33]
  MIC90: > 32 µg/mL
[18]; [34]
  MIC50: 4 µg/mL (≈ 5.45 µM)
[18]; [33]
  MIC90: > 32 µg/mL
[19]
  Minimal Inhibitory Concentration Range: 0.5 to 1 µg/mL
[19]; Parvimonas micra, read-out: Minimal Inhibitory Concentration 50% (MIC50)
  MIC50: 0.5 µg/mL (≈ 0.681 µM)
[19]; Parvimonas micra, read-out: Minimal Inhibitory Concentration 90% (MIC90)
  MIC90: 0.5 µg/mL (≈ 0.681 µM)
[20]
  MIC50: > 32 µg/mL
[21]
  Minimal Inhibitory Concentration Range: 0.03 to 32 µg/mL
[21]; [35]
  MIC50: 0.03 µg/mL (≈ 0.0409 µM)
[21]; [36]
  MIC90: 32 µg/mL (≈ 43.6 µM)
[22]
  Minimal Inhibitory Concentration Range: 0.03 to 0.25 µg/mL
[22]; Porphyromonas canoris, read-out: Minimal Inhibitory Concentration 50% (MIC50)
  MIC50: 0.06 µg/mL (≈ 0.0818 µM)
[22]; Porphyromonas canoris, read-out: Minimal Inhibitory Concentration 90% (MIC90)
  MIC90: 0.125 µg/mL (≈ 0.17 µM)
[23]
  Minimal Inhibitory Concentration Range: 0.06 to 0.5 µg/mL
[23]; Porphyromonas gingivalis, read-out: Minimal Inhibitory Concentration 50% (MIC50)
  MIC50: 0.125 µg/mL (≈ 0.17 µM)
[23]; Porphyromonas gingivalis, read-out: Minimal Inhibitory Concentration 90% (MIC90)
  MIC90: 0.5 µg/mL (≈ 0.681 µM)
[24]
  Minimal Inhibitory Concentration Range: 0.06 to 0.25 µg/mL
[24]; [35]
  MIC50: 0.125 µg/mL (≈ 0.17 µM)
[24]; [36]
  MIC90: 0.25 µg/mL (≈ 0.341 µM)
[25]; [34]
  MIC50: 0.06 µg/mL (≈ 0.0818 µM)
[25]; [33]
  MIC90: 0.06 µg/mL (≈ 0.0818 µM)
[26]; [33]
  MIC90: 2 µg/mL (≈ 2.73 µM)
[26]; [34]
  MIC50: 1 µg/mL (≈ 1.36 µM)
[27]
  Minimal Inhibitory Concentration Range: 0.5 to 8 µg/mL
[27]; Prevotella, read-out: Minimal Inhibitory Concentration 90% (MIC90)
  MIC90: 2 µg/mL (≈ 2.73 µM)
[27]; Prevotella, read-out: Minimal Inhibitory Concentration 50% (MIC50)
  MIC50: 1 µg/mL (≈ 1.36 µM)
[28]
  Minimal Inhibitory Concentration Range: 0.25 to 0.5 µg/mL
[28]; Prevotella heparinolytica, read-out: Minimal Inhibitory Concentration 90% (MIC90)
  MIC90: 0.25 µg/mL (≈ 0.341 µM)
[28]; Prevotella heparinolytica, read-out: Minimal Inhibitory Concentration 50% (MIC50)
  MIC50: 0.25 µg/mL (≈ 0.341 µM)
[29]
  Minimal Inhibitory Concentration Range: 0.03 to 0.5 µg/mL
[29]; Prevotella intermedia, read-out: Minimal Inhibitory Concentration 90% (MIC90)
  MIC90: 0.25 µg/mL (≈ 0.341 µM)
[29]; Prevotella intermedia, read-out: Minimal Inhibitory Concentration 50% (MIC50)
  MIC50: 0.06 µg/mL (≈ 0.0818 µM)
[30]
  Minimal Inhibitory Concentration Range: 0.06 to 32 µg/mL
[30]; Prevotella melaninogenica, read-out: Minimal Inhibitory Concentration 90% (MIC90)
  MIC90: 8 µg/mL (≈ 10.9 µM)
[30]; Prevotella melaninogenica, read-out: Minimal Inhibitory Concentration 50% (MIC50)
  MIC50: 1 µg/mL (≈ 1.36 µM)
[31]
  MIC50: 0.25 µg/mL (≈ 0.341 µM)
[32]; [33]
  MIC90: > 32 µg/mL
[32]; [34]
  MIC50: 16 µg/mL (≈ 21.8 µM)
